Measured values published in PubChem BioAssay AID1963864 (Molecular Pharmacology Branch, DTP, NCI, 2024).

Test system: KRAS PDC multicell spheroid viability
Assay: Anticancer human tumor 521955-158-R6-J3-PDC patient-derived pancreatic carcinoma cell line growth inhibition [KRAS2]
Settings: for IC50: curve of first compound; for viability, T/C: stronger effect = lower value
Text: Multicellular complex tumor spheroid response to RAS pathway inhibitors in combination with a targeted agents in patient-derived cell lines with oncogenic KRAS variants from multiple cancer types
A high-throughput screen of multi-cell type tumor spheroids was designed to identify active combinations of targeted small molecules and KRAS pathway inhibitors. Complex spheroids include a stromal component modeled by human endothelial cells (HUVEC) and fibroblasts modeled by human mesenchymal stem cells (MSCs). The concentration ranges selected for each drug and investigational agent were based upon clinically achievable concentrations if the clinical Cmax of the agent was known.
Compounds. The drugs and investigational agents: BI-3406 (NSC825286), BAY-293 (NSC824723), batoprotafib (TNO155; NSC825523), sotorasib (AMG 510; NSC818433), MRTX1257 (NSC819558), elimusertib (BAY 1895344; NSC800525), molibresib (GSK525762; NSC774829), temuterkib (LY3214996; NSC803410), venetoclax (NSC766270), alisertib (NSC759677), olaparib (NSC753686), talazoparib (NSC767125), erdafitinib (NSC781556), ipatasertib (NSC767898), cabozantinib (NSC761068), nintedanib (NSC756659), abemaciclib (NSC768073), docetaxel (NSC628503), trametinib (NSC758246), and sapanisertib (NSC764658) were obtained from the National Cancer Institute (NCI) Developmental Therapeutics Program Chemical Repository. The FDA-approved anticancer drug set is available from the Developmental Therapeutics Program. […] The stock solutions were prepared in dimethyl sulfoxide (DMSO, Sigma-Aldrich, St. Louis, MO, cat. D2650) at 800-fold the tested concentration and stored at -70 degrees C prior to their use. All drugs and investigational agents were tested over a range starting from a high concentration at or near the clinical Cmax and decreasing in half-log increments. If the clinical Cmax for an agent had not been determined, the highest concentration tested was 10 microM.
Cell Culture. All cells were maintained in an incubator at 37 degrees C and 5% CO2 with 95% humidity. The PDC lines were cultured according to standard operating procedures established by the NCI PDMR (https://pdmr.cancer.gov/sops/default.htm). Briefly, all PDCs were thawed and cultured in Matrigel-coated flasks prepared with a working solution of 1X Ham's F-12 nutrient mix, without supplementation (Invitrogen, Waltham, MA, cat. 11765054), 100 U/mL penicillin-streptomycin (Invitrogen, cat. 15140122), and 2.5% Matrigel (Corning Inc., Corning, NY, cat. 354248) for the first three passages. All PDCs were cultured in complete DMEM/F-12 media containing advanced DMEM/F-12 (Invitrogen, cat. 12634028), 4.9% defined fetal bovine serum, heat inactivated (HyClone Laboratories Inc., Logan, UT, cat. SH30070.03HI), 389 ng/mL hydrocortisone (Sigma-Aldrich, cat. H4001), 9.7 ng/mL human EGF recombinant protein (Invitrogen, cat. PHG0313), 23.4 microg/mL adenine (Sigma-Aldrich, cat. A2786), 97.3 U/mL penicillin-streptomycin (Invitrogen, cat. 15140122), 1.9 mM L-glutamine (Invitrogen, cat. 25030081), and 9.7 microM Y-27632 dihydrochloride (Tocris Bioscience, Bristol, United Kingdom, cat. 1254). The PDCs were cultured in complete DMEM/F12 media without 9.7 microM Y-27632 dihydrochloride for at least two passages prior to the screen. The established cell line HOP-62 was cultured in RPMI 1640 medium, HEPES (Invitrogen, cat. 22400105) with 10% defined fetal bovine serum (HyClone Laboratories Inc., cat. SH30070.03) and 2 mM L-glutamine (Invitrogen, cat. 25030081). The pooled donor HUVEC were cultured in endothelial cell growth medium 2 (PromoCell, Heidelberg, Germany, cat. C-22011) and the hMSC were cultured in mesenchymal stem cell growth medium 2 (PromoCell, cat. C-28009). For all experiments, HUVEC and hMSC were used at passages </=5, while the malignant cell lines were used at passages </=15. […]

[1] = second compound 0.1 µM, first compound 0.0316 µM
[2] = second compound 0.1 µM, first compound 0.1 µM
[3] = second compound 0.1 µM, first compound 0.316 µM
[4] = second compound 0.1 µM, first compound 1 µM
[5] = second compound 0.316 µM, first compound 0.0316 µM
[6] = second compound 0.316 µM, first compound 0.1 µM
[7] = second compound 0.316 µM, first compound 0.316 µM
[8] = second compound 0.316 µM, first compound 1 µM
[9] = second compound 1 µM, first compound 0.0316 µM
[10] = second compound 1 µM, first compound 0.1 µM
[11] = second compound 1 µM, first compound 0.316 µM
[12] = second compound 1 µM, first compound 1 µM
[13] = second compound 3.16 µM, first compound 0.0316 µM
[14] = second compound 3.16 µM, first compound 0.1 µM
[15] = second compound 3.16 µM, first compound 0.316 µM
[16] = second compound 3.16 µM, first compound 1 µM
[17] = second compound 10 µM, first compound 0.0316 µM
[18] = second compound 10 µM, first compound 0.1 µM
[19] = second compound 10 µM, first compound 0.316 µM
[20] = second compound 10 µM, first compound 1 µM
[21] = second compound 0.1 µM, first compound 0.00316 µM
[22] = second compound 0.1 µM, first compound 0.01 µM
[23] = second compound 0.316 µM, first compound 0.00316 µM
[24] = second compound 0.316 µM, first compound 0.01 µM
[25] = second compound 1 µM, first compound 0.00316 µM
[26] = second compound 1 µM, first compound 0.01 µM
[27] = second compound 3.16 µM, first compound 0.00316 µM
[28] = second compound 3.16 µM, first compound 0.01 µM
[29] = second compound 10 µM, first compound 0.00316 µM
[30] = second compound 10 µM, first compound 0.01 µM
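Further: drug exposure lasted seven days.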
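Wherever viability, T/C is given: 100% = DMSO vehicle wells and lower means fewer viable cells.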

SMILES | IC50 (second compound 0.1 µM) | IC50 (second compound 0.316 µM) | IC50 (second compound 1 µM) | IC50 (second compound 3.16 µM) | IC50 (second compound 10 µM) | viability, T/C [1] | viability, T/C [2] | viability, T/C [3] | viability, T/C [4] | viability, T/C [5] | viability, T/C [6] | viability, T/C [7] | viability, T/C [8] | viability, T/C [9] | viability, T/C [10] | viability, T/C [11] | viability, T/C [13] | viability, T/C [14] | viability, T/C [17] | viability, T/C [18] | also measured
CC(C)NCC(C(=O)N1CCN(c2ncnc3c2C(C)CC3O)CC1)c1ccc(Cl)cc1 (stereo not given) + C=CC(=O)N1CCN(c2nc(=O)n(-c3c(C)ccnc3C(C)C)c3nc(-c4c(O)cccc4F)c(F)cc23)C(C)C1 | > 10000 nM | > 10000 nM | > 10000 nM | > 10000 nM | 683 nM | 90.8% | 90.4% | 74.5% | 76.2% | 94.4% | 89% | 72.5% | 81.3% | 93.5% | 83.4% | 75.8% | 85.7% | 72% | 75.3% | 63.2% | viability, T/C (second compound 0.1 µM, first compound 3.16 µM): 79.5%; viability, T/C (second compound 0.1 µM, first compound 10 µM): 65.7%; viability, T/C (second compound 0.316 µM, first compound 3.16 µM): 79.8%; viability, T/C (second compound 0.316 µM, first compound 10 µM): 58.6%; viability, T/C [12]: 69.7%; viability, T/C (second compound 1 µM, first compound 3.16 µM): 66.9%; viability, T/C (second compound 1 µM, first compound 10 µM): 65.5%; viability, T/C [15]: 66.5%; viability, T/C [16]: 64.9%; viability, T/C (second compound 3.16 µM, first compound 3.16 µM): 57.4%; viability, T/C (second compound 3.16 µM, first compound 10 µM): 57.4%; viability, T/C [19]: 54.6%; viability, T/C [20]: 43.3%; viability, T/C (second compound 10 µM, first compound 3.16 µM): 50.3%; viability, T/C (second compound 10 µM, first compound 10 µM): 43.7%
CCN1CCN(Cc2ccc(Nc3ncc(F)c(-c4cc(F)c5nc(C)n(C(C)C)c5c4)n3)nc2)CC1 + C=CC(=O)N1CCN(c2nc(=O)n(-c3c(C)ccnc3C(C)C)c3nc(-c4c(O)cccc4F)c(F)cc23)C(C)C1 | > 1000 nM | > 1000 nM | > 1000 nM | > 1000 nM | > 1000 nM | 86.1% | 74.2% | 83.6% | 97.6% | 78.7% | 86% | 88.2% | 88.5% | 111% | 94.3% | 85.6% | 101% | 90.3% | 75.3% | 70.4% | viability, T/C [21]: 102%; viability, T/C [22]: 88.8%; viability, T/C [23]: 95.8%; viability, T/C [24]: 90.6%; viability, T/C [25]: 111%; viability, T/C [26]: 91.9%; viability, T/C [12]: 125%; viability, T/C [27]: 87.6%; viability, T/C [28]: 89.4%; viability, T/C [15]: 109%; viability, T/C [16]: 114%; viability, T/C [29]: 63.2%; viability, T/C [30]: 73.2%; viability, T/C [19]: 85.5%; viability, T/C [20]: 114%
Cn1ncnc1[C@H]1c2n[nH]c(=O)c3cc(F)cc(c23)N[C@@H]1c1ccc(F)cc1 + C=CC(=O)N1CCN(c2nc(=O)n(-c3c(C)ccnc3C(C)C)c3nc(-c4c(O)cccc4F)c(F)cc23)C(C)C1 | > 100 nM | > 100 nM | > 100 nM | > 100 nM | > 100 nM | 96.5% | 95% | – | – | 105% | 108% | – | – | 110% | 118% | – | 99.7% | 96.4% | 82.5% | 78% | viability, T/C (second compound 0.1 µM, first compound 0.000316 µM): 106%; viability, T/C (second compound 0.1 µM, first compound 0.001 µM): 109%; viability, T/C [21]: 101%; viability, T/C [22]: 107%; viability, T/C (second compound 0.316 µM, first compound 0.000316 µM): 110%; viability, T/C (second compound 0.316 µM, first compound 0.001 µM): 102%; viability, T/C [23]: 116%; viability, T/C [24]: 94.9%; viability, T/C (second compound 1 µM, first compound 0.000316 µM): 114%; viability, T/C (second compound 1 µM, first compound 0.001 µM): 109%; viability, T/C [25]: 118%; viability, T/C [26]: 97.5%; viability, T/C (second compound 3.16 µM, first compound 0.000316 µM): 102%; viability, T/C (second compound 3.16 µM, first compound 0.001 µM): 104%; viability, T/C [27]: 101%; viability, T/C [28]: 100%; viability, T/C (second compound 10 µM, first compound 0.000316 µM): 81.8%; viability, T/C (second compound 10 µM, first compound 0.001 µM): 80.2%; viability, T/C [29]: 83.4%; viability, T/C [30]: 83.2%
